Assay results from patent US12415771B2, “Compounds for the treatment of neuromuscular disorders” (NMD PHARMA A/S, priority 2019, dated 2025).
Read-outs that look alike come from different tables or passages of the source.

Legend:
CIC-1 ion channel = target: T1, CIC-1 ion channel (Rattus norvegicus, UniProt P35524); test: Electrophysiological measurement (Gm, three micro-electrode technique) of compound inhibition of CIC-1 in rat soleus muscle fibres; assay type: cell-based; conditions: whole rat soleus muscle, Gm at four increasing concentrations, approx. 30° C., mean ± spread
T1 construct: from tissue; host or cells: intact soleus muscle of 12-14 week old Wistar rats
T1 sequence (P35524 1-994): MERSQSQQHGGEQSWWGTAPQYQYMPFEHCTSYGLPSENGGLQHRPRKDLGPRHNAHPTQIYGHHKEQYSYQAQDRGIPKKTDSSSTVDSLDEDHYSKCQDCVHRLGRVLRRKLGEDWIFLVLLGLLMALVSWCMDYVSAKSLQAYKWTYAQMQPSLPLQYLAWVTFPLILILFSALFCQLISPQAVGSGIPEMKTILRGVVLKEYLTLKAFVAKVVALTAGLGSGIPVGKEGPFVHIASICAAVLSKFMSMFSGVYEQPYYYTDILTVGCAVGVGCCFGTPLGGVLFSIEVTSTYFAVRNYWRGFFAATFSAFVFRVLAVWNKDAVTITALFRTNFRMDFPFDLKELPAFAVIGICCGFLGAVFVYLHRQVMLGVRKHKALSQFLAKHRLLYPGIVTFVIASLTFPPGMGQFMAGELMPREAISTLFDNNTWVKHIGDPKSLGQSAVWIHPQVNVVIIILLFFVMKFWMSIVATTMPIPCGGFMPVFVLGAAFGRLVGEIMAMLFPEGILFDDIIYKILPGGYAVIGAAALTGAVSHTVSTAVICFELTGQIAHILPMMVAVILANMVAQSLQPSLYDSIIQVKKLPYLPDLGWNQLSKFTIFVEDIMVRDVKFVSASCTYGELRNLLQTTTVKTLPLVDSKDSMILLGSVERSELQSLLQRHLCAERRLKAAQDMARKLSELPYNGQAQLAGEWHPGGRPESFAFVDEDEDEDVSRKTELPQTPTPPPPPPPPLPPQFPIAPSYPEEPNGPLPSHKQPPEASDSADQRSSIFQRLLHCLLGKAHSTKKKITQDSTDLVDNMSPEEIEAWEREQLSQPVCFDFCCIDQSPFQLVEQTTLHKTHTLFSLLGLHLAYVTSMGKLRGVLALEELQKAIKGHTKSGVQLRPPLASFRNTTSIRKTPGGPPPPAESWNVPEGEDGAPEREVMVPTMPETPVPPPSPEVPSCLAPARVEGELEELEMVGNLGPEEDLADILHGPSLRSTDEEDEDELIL

[1] = system: isolated rat soleus muscles; test: Recovery of nerve-stimulated contractile force in isolated rat soleus nerve-muscle preparation exposed to tubocurarine; conditions: 40 min, read-out: Point increase (%) of initial force that was restored
Experimental: Recovery of force is quantified as the percentage of the force prior to tubocurarine that is recovered by the compound.
The current disclosure relates to compounds that inhibit CIC-1 ion channels and increase muscle excitability and thereby improve muscle function in clinical conditions where muscle activation is failing. Such conditions result in loss of contractile function of skeletal muscle, weakness and excessive fatigue. In this series of experiments the compounds were tested for their ability to restore contractile function of isolated rat muscle when the neuromuscular transmission had been compromised akin to neuromuscular disorders.
Experimentally, soleus muscles from 4-5 wk old rats were isolated with the motor nerve remaining attached. The nerve-muscle preparations were mounted in experimental setups that enabled electrical stimulation of the motor nerve. Stimulation of the motor nerve led to activation of the muscle fibres and ensuing force production that was recorded.
After mounting the nerve-muscle preparation in the experimental setup, the contractile function of the muscle was initially assessed under the control conditions (FIG. 2A). […] The experimental condition mimics the failing neuromuscular transmission in a range of neuromuscular disorders. After addition of tubocurarine the contractile force declined over the next 90 mins to 10-50% of the control force. 50 μM of the test compound was then added and the contractile force recovered despite the continued presence of tubocurarine. To quantify the ability of the compound to restore force the percentage of the initial force that was restored was determined after 40 mins of compound exposure (FIG. 2B) and the point increase is reported in Table 3.

female Lewis rats = test: In situ isometric hindlimb force in anaesthetised rats under partial neuromuscular block by Cisatracurium; assay type: in vivo; conditions: Rattus norvegicus, iv, read-out: increase in tetanic force
Experimental: Isometric hindlimb force was measured in 12-week old female Lewis rats in the presence and absence of compound.
Rats were placed under anesthesia with isoflurane (2-4%), intubated and subsequently connected to a micro ventilator (Microvent 1, Hallowell EMC, US). Two stimulation electrodes were inserted through the skin to stimulate the sciatic nerve. A small incision was made proximal to the ankle, to expose the Achilles tendon, which was tied by cotton string, and connected to a force transducer (Fort250, World Precision Instruments) with adjustable position (Vernier control). The Achilles tendon was then cut distal to the attached cotton string. The rat was placed on a heated pad, and to prevent movement artefacts from contraction of the ankle dorsiflexors, the foot was fixated by tape on a footplate.
Muscle contractile properties were assessed by applying an electrical current (under supramaximal voltage conditions) to the nerve and recording the force generated by the muscle. The muscle was stretched until maximal force was obtained, when assessed by 2 Hz stimulation. Isometric force was measured every 30 seconds at 12 Hz (Twitch), 10 pulses, and at every 5 minutes at 80 Hz (Tetanic) for 1 second (80 pulses). This stimulation pattern was employed throughout the experiment, expect in few cases where 80 Hz stimulation was replaced by 12 Hz (10 pulses). […] When the level of neuromuscular inhibition was stable, the test article was injected i.v. at the chosen concentration. The effect of test article was assessed on its ability to increase force generated from the stimulation pattern applied. The effect was assessed in the ability to increase force per se (tetanic, 80 Hz, stimulation), and the ratio between individual twitch peaks (12 Hz stimulation). The effect was monitored for at least 1 hour after injection of test article. In addition, the time from injection of test article to maximal effect on force (both twitch and tetanic) was noted and the time for the effect to disappear (return to baseline), if possible. When appropriate the infusion of neuromuscular blocking agent was ceased, with the stimulation pattern continued, and the return of force to control levels was monitored. Animals were sacrificed by cervical dislocation while still fully sedated.

[2] = system: isolated rat soleus muscles; test: Recovery of nerve-stimulated contractile force in isolated rat soleus nerve-muscle preparation exposed to tubocurarine; conditions: FIG. 2: 50 μM compound added after 90 min incubation in tubocurarine, 3 muscles
[3] = 50 μM test compound, after 40 mins exposure, 115 nM tubocurarine for 90 mins, rat soleus

| Structure (SMILES) | EC50 (CIC-1 ion channel) [µM] | activation at 50 µM [1, 3] [%] | activation at 50 µM ([1]; Rattus norvegicus) [%] | other results |
| --- | --- | --- | --- | --- |
| CCC(F)(F)c1cc(Br)ccc1O[C@@H](C)C(=O)O [Compound A-3, (2S)-2-[4-bromo-2-(1,1-difluoropropyl)phenoxy]propanoic acid] | 3.5 ± 0.4 | 54 | – | change in vivo at 17.5 mg/kg (female Lewis rats; 17.5 mg/kg i.v., 80 Hz stimulation, Cisatracurium block): 64%; average force (AUC) relative to initial force [2]: recovered |
| CCC(F)(F)c1cc(Cl)ccc1O[C@@H](CF)C(=O)O [Compound A-22, (2R)-2-[4-chloro-2-(1,1-difluoropropyl)phenoxy]-3-fluoropropanoic acid] | 3.3 ± 1.2 | – | 65 | change in vivo at 10.4 mg/kg (female Lewis rats): 57% |
| C#Cc1ccc(O[C@@H](C)C(=O)O)c(C(F)(F)CC)c1 [Compound A-23, (2S)-2-[2-(1,1-difluoropropyl)-4-ethynylphenoxy]propanoic acid] | 6.1 ± 1.1 | 37 | – | change in vivo at 18.8 mg/kg (female Lewis rats; 18.8 mg/kg i.v., 80 Hz stimulation, Cisatracurium block): 40% |
| C[C@H](Oc1cc(F)c(Br)cc1C(C)(F)F)C(=O)O [Compound A-29, (2S)-2-[4-bromo-2-(1,1-difluoroethyl)-5-fluorophenoxy]propanoic acid] | 5.5 ± 1.7 | – | 46 | change in vivo at 22.9 mg/kg (female Lewis rats): 76% |
| CCC(F)(F)c1cc(Br)c(F)cc1OCC(=O)O [Compound A-31, 2-[4-bromo-2-(1,1-difluoropropyl)-5-fluorophenoxy]acetic acid] | 5.5 ± 0.2 | 43 | – | change in vivo at 11.4 mg/kg (female Lewis rats; 11.4 mg/kg i.v., 80 Hz stimulation, Cisatracurium block): 14% |
| CCC(F)(F)c1cc(Cl)c(F)cc1O[C@@H](C)C(=O)O [Compound A-32, (2S)-2-[4-chloro-2-(1,1-difluoropropyl)-5-fluorophenoxy]propanoic acid] | 2.3 ± 0.6 | – | 41 | change in vivo at 11.2 mg/kg (female Lewis rats): 75% |
